Structures can show the parent of a compound that is named as a salt. Where two headings read alike, the source gives them in different places.
Legend:
[1] = molecular target: T1, 5-HT-1A serotonin receptor (Rattus norvegicus, UniProt P19327); assay: ex vivo inhibition of 5-HT-1A serotonin receptor binding (3H-8-OH-DPAT, hippocampal membranes)
T1 construct: Hippocampal tissue is dissected and homogenized on ice in 40 vols of buffer; from tissue; host or cells: rat hippocampus, washed membrane homogenate
T1 sequence (P19327 1-422): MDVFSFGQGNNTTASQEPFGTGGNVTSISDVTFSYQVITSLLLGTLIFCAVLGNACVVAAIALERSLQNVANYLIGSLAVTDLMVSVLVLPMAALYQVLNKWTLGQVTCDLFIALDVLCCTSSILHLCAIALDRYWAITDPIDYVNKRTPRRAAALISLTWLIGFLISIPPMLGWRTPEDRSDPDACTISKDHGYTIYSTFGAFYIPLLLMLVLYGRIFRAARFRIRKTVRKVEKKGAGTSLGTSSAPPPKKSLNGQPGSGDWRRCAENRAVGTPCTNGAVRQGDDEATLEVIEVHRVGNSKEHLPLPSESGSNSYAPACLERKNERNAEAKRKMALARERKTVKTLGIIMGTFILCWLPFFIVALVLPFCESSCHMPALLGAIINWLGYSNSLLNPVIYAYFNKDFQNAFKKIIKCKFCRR
Method: The assay is carried out as follows:
Several groups of rats (4-6 rats/group) are injected with test compound or the appropriate vehicle. Thirty minutes later, unless otherwise noted, rats are decapitated and their brains removed. Various brain regions are dissected and rapidly frozen and maintained at -70° C. until used.
The homogenate is then centrifuged at 20,000 rpm (RC5-B; 50,000 g) and the supernatant discarded. […] The pellet is then resuspended in 100 vols of buffer B (50 mM Tris HCl, pH=7.7 containing 0.1% ascorbate, 10 μM pargyline and 4 mM CaCl2) and sonicated. An aliquot is taken for protein determination by the Lowry method and the remainder stored frozen at -70° C. until used.
Specific binding obtained in vehicle-treated rats is compared to that obtained in animals receiving a single or various doses of test compound and expressed as percent of control.

[2] = molecular target: limbic D-2 dopamine receptor (Rattus norvegicus, UniProt P61169); assay: biochemical; details: read-out: Limbic D-2 Binding, inhibition
[3] = test system: conditioned avoidance responding in rats; assay: conditioned avoidance (shelf-jump response) test; details: i.p.; Table 1
Method: A test designed to determine the potential antipsychotic activity of the compounds of the invention is the conditioned avoidance (shelf-jump response) test.
This test is carried out as follows:
Male CD rats (Charles River) maintained at approximately 400-450 gm body weight are used. […] A moveable wall, controlled by a motor, determines whether the rat has access to the shelf at any time during the experiment. The experimental chamber also contains a house light and sonalert. A steel grid floor in the main chamber is wired for presentation of electric shock. Each trial consists of a fifteen-second warning tone (conditioned stimulus), continuing for an additional fifteen seconds accompanied by electric shock (unconditioned stimulus). A response (jumping onto the exposed shelf of the upper chamber) occurring during the initial fifteen-second warning tone is considered an avoidance response, while a response occurring during shock delivery is considered an escape response. Trials are presented on a fixed interval schedule of one minute. The session consists of thirty-six trials. Animals are run twice weekly with control sessions always preceding a drug run, and with at least one day intervening. Compounds are administered i.p. or p.o. at appropriate pre-treatment times to a minimum of five rats at each dose level over a range of doses.
The following experimental parameters are recorded by computer: (1) the number of avoidance responses, (2) the number of escape responses, and (3) the number of trials in which no response occurred.
Response counts are summed over all subjects at a given dose. […] This number is expressed as a percentage of the total trials. Control performance is arbitrarily assigned a value of 100% for avoidance and the dose calculated to produce a 50% block in avoidance responding (AB50) is obtained from a dose-effect regression line fitted by the method of least squares. Potential anti-psychotic compounds suppress avoidance responding and increase escape responding.

[4] = Table 3, rat hippocampal tissue, 3H-8-OH-DPAT, read-out: Inhibition Constant (Ki)

limbic D-2 dopamine receptor, sequence (P61169 whole entry): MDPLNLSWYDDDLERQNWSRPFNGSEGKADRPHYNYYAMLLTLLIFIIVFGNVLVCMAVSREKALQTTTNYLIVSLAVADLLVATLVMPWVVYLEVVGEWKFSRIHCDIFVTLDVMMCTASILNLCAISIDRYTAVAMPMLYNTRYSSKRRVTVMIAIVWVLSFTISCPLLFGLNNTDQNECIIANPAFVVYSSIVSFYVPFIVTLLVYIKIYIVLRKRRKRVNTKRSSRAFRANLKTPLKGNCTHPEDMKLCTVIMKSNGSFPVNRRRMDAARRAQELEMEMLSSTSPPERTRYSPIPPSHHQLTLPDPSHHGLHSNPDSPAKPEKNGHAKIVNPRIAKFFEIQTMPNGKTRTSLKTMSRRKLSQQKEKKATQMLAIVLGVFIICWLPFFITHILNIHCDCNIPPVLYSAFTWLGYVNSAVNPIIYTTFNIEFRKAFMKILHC

Ki [1, 4]	Structure (SMILES)	inhibition at 1 µM [2]	Active at [3]	Ki [1]
14 nM	O=C1N(CCCCN2CCN(c3ncccn3)CC2)C(=O)C23C4C=CC(C4)C12C1C=CC3C1 (centres unmarked) [Example 1, 1,4,5,8-Tetrahydro-10-[4-[4-(2-pyrimidinyl-1-piperazinyl]butyl]-4a,8a-(methaniminomethano)-1,4:5,8-dimethanonaphthalene-9,11-dione, dihydrochloride, hemihydrate]	53%	40 mg/kg	
	O=C1N(CCCCN2CCN(c3cnccn3)CC2)C(=O)C23C4C=CC(C4)C12C1C=CC3C1 (centres unmarked) [Example 3, 1,4,5,8-Tetrahydro-10-[4-[4-(2-pyrazinyl)-1-piperazinyl]butyl]-4a,8a-(methaniminomethano)-1,4:5,8-dimethanonaphthalene-9,11-dione, dihydrochloride, sesquihydrate]	63%	40 mg/kg	12 nM
7 nM	O=C1N(CCCCN2CCN(c3ncccn3)CC2)C(=O)C23C4CCC(C4)C12C1CCC3C1 (centres unmarked) [Example 4, Octahydro-10-[4-[4-(2-pyrimdinyl)-1-piperazinyl]butyl]-4a,8a-(methaniminomethano)-1,4:5,8-dimethanonaphthalene-9,11-dione, dihydrochloride]		40 mg/kg	
